The target of series [1] is T1, human PR (Homo sapiens, UniProt P06401).
T1 sequence (P06401 1-933): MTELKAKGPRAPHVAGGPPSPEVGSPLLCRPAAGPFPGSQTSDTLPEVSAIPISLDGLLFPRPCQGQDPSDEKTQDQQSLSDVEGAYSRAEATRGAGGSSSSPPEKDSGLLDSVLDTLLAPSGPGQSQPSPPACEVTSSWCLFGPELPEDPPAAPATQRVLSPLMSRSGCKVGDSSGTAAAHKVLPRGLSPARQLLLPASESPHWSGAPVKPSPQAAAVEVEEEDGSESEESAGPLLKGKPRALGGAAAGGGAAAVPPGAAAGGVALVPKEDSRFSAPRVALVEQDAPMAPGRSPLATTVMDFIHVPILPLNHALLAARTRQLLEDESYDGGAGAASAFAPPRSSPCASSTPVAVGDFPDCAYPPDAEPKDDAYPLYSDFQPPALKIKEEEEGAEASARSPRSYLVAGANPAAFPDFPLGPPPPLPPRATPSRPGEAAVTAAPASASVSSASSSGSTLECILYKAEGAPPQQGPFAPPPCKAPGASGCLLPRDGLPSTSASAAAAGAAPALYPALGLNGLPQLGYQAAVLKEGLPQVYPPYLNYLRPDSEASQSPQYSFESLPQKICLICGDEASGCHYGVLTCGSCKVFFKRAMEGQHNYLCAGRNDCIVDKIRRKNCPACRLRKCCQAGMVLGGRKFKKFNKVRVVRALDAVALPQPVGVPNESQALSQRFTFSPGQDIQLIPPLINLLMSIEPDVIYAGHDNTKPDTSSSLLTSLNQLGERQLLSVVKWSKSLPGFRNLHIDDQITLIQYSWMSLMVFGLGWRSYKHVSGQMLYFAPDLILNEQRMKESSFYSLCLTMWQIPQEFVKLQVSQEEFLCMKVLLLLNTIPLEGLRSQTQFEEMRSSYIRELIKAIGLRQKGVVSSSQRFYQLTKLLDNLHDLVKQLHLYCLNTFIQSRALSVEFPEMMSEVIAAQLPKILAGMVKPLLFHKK
As to the kind of experiment: PR agonist yeast lacZ reporter gene assay. The settings on record: for EC50: EC50, agonist assay. On the technique in general: A reporter such as luciferase makes a cellular process visible.

In series [2] the target is T2, human AR (Homo sapiens, UniProt P10275).
T2 sequence (P10275 1-920): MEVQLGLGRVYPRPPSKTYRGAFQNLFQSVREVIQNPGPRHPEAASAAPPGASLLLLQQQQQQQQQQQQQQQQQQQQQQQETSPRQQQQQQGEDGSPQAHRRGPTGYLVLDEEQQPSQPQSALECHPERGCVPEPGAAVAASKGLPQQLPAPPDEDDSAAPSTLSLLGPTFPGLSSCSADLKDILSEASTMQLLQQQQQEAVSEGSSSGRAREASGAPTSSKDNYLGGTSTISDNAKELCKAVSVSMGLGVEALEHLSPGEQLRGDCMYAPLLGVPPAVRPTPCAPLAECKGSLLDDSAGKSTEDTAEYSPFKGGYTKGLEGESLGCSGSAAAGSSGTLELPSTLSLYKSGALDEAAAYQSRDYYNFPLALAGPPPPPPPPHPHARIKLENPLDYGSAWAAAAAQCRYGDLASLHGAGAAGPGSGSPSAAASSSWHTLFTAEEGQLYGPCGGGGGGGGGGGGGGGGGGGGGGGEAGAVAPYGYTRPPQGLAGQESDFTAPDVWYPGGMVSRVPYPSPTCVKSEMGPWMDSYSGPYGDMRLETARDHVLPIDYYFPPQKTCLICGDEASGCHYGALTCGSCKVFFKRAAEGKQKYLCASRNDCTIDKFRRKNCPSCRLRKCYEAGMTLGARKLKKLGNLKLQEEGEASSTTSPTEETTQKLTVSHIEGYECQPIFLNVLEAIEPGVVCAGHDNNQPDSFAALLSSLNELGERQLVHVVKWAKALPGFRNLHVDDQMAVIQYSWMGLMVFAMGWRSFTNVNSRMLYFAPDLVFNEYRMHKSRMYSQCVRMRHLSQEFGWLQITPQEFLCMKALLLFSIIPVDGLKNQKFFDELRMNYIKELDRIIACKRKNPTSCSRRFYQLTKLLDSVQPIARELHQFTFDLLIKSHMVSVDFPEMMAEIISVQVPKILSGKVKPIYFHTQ
The series can be described thus: AR agonist yeast lacZ reporter gene assay. The series is classed as cell-based.

Series [3] addresses T2, human AR. The series can be described thus: AR antagonist yeast reporter gene assay (competition with testosterone at EC50). It counts as cell-based. The conditions noted are these: with testosterone […] nM.
Series [4] has as its system CYC yeast strains.
The target of series [5] is T3, human ERβ (Homo sapiens, UniProt Q92731). As to the kind of experiment: ERβ agonist yeast lacZ reporter gene assay. The series is classed as cell-based.
The target in series [6] is T3, human ERβ. The series can be described thus: ERβ antagonist yeast reporter gene assay (competition with E2 at EC50). The conditions noted are these: co-exposure with E2; data not shown.
Series [7] addresses T4, human ERα (Homo sapiens, UniProt P03372).
T4 sequence (P03372 1-595): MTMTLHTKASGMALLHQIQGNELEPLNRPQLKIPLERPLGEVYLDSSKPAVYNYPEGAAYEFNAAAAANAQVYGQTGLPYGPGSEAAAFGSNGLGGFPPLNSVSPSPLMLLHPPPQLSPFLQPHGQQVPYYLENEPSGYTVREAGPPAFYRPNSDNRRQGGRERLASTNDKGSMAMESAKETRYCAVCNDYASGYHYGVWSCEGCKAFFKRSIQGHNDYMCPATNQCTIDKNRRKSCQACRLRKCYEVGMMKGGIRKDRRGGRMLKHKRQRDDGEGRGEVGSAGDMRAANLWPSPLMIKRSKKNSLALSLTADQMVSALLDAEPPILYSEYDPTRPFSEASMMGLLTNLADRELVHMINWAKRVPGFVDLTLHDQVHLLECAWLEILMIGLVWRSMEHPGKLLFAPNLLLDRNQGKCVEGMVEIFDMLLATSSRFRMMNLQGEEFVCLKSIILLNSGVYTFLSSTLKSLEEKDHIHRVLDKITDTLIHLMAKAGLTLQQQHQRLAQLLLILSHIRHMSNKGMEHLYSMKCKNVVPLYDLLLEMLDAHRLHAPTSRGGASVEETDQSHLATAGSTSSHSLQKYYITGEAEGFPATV
The series can be described thus: ERα agonist yeast lacZ reporter gene assay. The conditions noted are these: strain cwp1Δcwp2Δ. It counts as cell-based.

Series [8] addresses T1, human PR. As to the kind of experiment: PR antagonist yeast reporter gene assay (competition with PS at EC50). The series is classed as cell-based. The conditions noted are these: strain cwp1Δpdr5Δ.
Where [9] appears, read: agonist assay, strain W303a, read-out: EC50.
Where [10] appears, read: agonist assay, strain cwp1Δcwp2Δ, read-out: EC50.

Broadly, the EC50 is the concentration needed to bring the measured effect to its halfway point. The term IC50 denotes the concentration that gives 50% inhibition. Lower therefore signals inhibition by little substance.

“And” between values parts separate entries of the source, which are not always exact repeats. Equal entries are not always repeated. Where two headings read alike, the source gives them in different places.

T3 sequence (Q92731 whole entry): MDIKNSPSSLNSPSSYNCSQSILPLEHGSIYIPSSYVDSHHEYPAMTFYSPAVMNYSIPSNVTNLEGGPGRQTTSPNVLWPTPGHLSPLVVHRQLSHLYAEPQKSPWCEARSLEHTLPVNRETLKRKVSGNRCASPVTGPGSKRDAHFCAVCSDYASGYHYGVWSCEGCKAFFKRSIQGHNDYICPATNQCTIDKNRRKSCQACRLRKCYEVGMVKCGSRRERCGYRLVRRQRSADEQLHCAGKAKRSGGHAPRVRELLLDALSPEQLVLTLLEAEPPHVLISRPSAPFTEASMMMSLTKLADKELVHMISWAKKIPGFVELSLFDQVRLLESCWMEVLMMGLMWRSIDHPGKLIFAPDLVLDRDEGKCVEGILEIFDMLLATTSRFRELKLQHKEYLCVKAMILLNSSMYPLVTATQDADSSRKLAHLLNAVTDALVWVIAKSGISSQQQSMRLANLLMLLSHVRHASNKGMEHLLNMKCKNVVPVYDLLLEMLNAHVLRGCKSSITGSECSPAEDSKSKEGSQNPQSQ

Regarding `C[C@]12CCC(=O)C=C1CC[C@@H]1[C@@H]2[C@@H](O)C[C@]2(C=O)[C@@H](C(=O)CO)CC[C@@H]12` [AS, aldosterone], the EC50 in series [1] (strain cwp1Δpdr5Δ) was found to be 9700 nM.

For the molecule `C[C@]12C[C@H](O)[C@H]3[C@@H](CCC4=CC(=O)CC[C@@]43C)[C@@H]1CC[C@@H]2C(=O)CO` [CS, corticosterone], the EC50 in series [1] (strain cwp1Δcwp2Δ) turned out to be 20100 nM; in series [1] (strain cwp1Δpdr5Δ), 18300 nM.

Consider `C[C@]12CCC3=C4CCC(=O)C=C4CC[C@H]3[C@@H]1CC[C@@]2(O)CC#N` [DNG, Dienogest], for which the “androgenic activity, fold weaker than earlier generation progestins with respect to minimal detection limit concentration” value in series [2] (AR-expressing mutant yeast strains) was found to be 100 fold. For the same molecule, the EC50 in series [2] (setting [9]) amounted to 9780 nM; in series [2] (agonist assay, strain cwp1Δpdr5Δ, read-out: EC50), 8100 nM; in series [2] (agonist assay, strain pdr5Δpdr10Δ, read-out: EC50), 2430 nM; in series [1] (strain cwp1Δcwp2Δ) it was 6100 nM; in series [1] (strain cwp1Δpdr5Δ) it was 860 nM. The IC50 in series [3] (strain cwp1Δpdr5Δ) was determined as 38100 nM; in series [3] (strain pdr5Δpdr10Δ), 30200 nM. The “constitutive expression of β-gal in reference CYC strains” value (“constitutive expression of β-gal” for short) in series [4] was “Neither DNG nor DRSP inhibited”.

`C[C@]12CCC(=O)C=C1[C@@H]1C[C@@H]1[C@H]1[C@@H]3[C@@H]4C[C@@H]4[C@@]4(CCC(=O)O4)[C@@]3(C)CC[C@@H]12` [DRSP, drospirenone]: the “constitutive expression of β-gal” value in series [4] is on record as “Neither DNG nor DRSP inhibited”.

For `C[C@]12CC[C@@H]3c4ccc(O)cc4CC[C@H]3[C@@H]1CCC2=O` [E1, estrone], the EC50 in series [2] (EC50) was 900 nM and 860 nM and 96 nM.

Consider `C[C@]12CC[C@@H]3c4ccc(O)cc4CC[C@H]3[C@@H]1C[C@@H](O)[C@@H]2O` [E3, estriol], for which the values for the EC50 in series [5] (setting [9]) and in series [5] (setting [10]) were 34 nM and 1.22 nM, respectively. The Detection limit was 0.1 µM in series [5] (strain W303a) and 10^−4 μM in series [5] (strain cwp1Δcwp2Δ).

Regarding `CC(C)C(=O)Nc1ccc([N+](=O)[O-])c(C(F)(F)F)c1` [Flu, flutamide], in series [4], the “constitutive expression of β-gal” value was “not affected”.

`C#C[C@]1(O)C=C[C@H]2[C@@H]3CCC4=CC(=O)CC[C@@H]4[C@H]3CC[C@@]21CC` [GTD, gestodene]: the “androgenic activity, fold weaker than earlier generation progestins with respect to minimal detection limit concentration” value in series [2] is 10 fold. For the same molecule, the EC50 in series [2] (EC50) is 1060 nM and 400 nM; in series [1] (strain W303a), 220 nM; in series [1] (strain cwp1Δpdr5Δ) it was 0.996 nM.

As for `C[C@]12CC[C@@H]3c4ccc(O)cc4C[C@@H](CCCCCCCCC[S+]([O-])CCCC(F)(F)C(F)(F)F)[C@H]3[C@@H]1CC[C@@H]2O` (some centres unmarked) [ICI, ICI 182, 780], in series [4], the “constitutive β-gal expression in control CYC strains” value was “not repressed”.

Regarding `Cc1c(-c2ccc(O)cc2)nn(-c2ccc(O)cc2)c1-c1ccc(OCCN2CCCCC2)cc1.Cl.Cl` [MPP, methyl-piperidino-pyrazoledihydrochloride hydrate], the figures for the EC50 in series [5] (setting [9]) and in series [5] (setting [10]) were 19200 nM and 2730 nM, respectively. Also, the antagonistic activity result in series [6] is recorded as “undetectable”.

As for `CC#C[C@]1(O)CC[C@H]2[C@@H]3CCC4=CC(=O)CCC4=C3[C@@H](c3ccc(N(C)C)cc3)C[C@@]21C` [Mif, mifepristone], the “constitutive expression of β-gal” value in series [4] was “not affected”.

For the molecule `CCCc1c(-c2ccc(O)cc2)nn(-c2ccc(O)cc2)c1-c1ccc(O)cc1` [PPT, propyl pyrazole triol], in series [7], the “fold lower EC50 value for ERα than ERβ” value came to 2.5 fold and the “fold lower minimum detection limit for ERα than ERβ” value is 10 fold. Besides, the EC50 in series [5] (read-out: EC50) was 13700 nM and 2340 nM.

For the molecule `CC(=O)[C@H]1CC[C@H]2[C@@H]3CCC4=CC(=O)CC[C@]4(C)[C@H]3CC[C@]12C` [PS, progesterone], the Detection limit in series [1] (strain W303a) amounted to 10 µM; in series [1] (strain cwp1Δcwp2Δ), 0.01 µM; in series [1] (strain cwp1Δpdr5Δ), 0.01 µM.

Regarding `CC(=O)S[C@@H]1CC2=CC(=O)CC[C@]2(C)[C@H]2CC[C@@]3(C)[C@@H](CC[C@@]34CCC(=O)O4)[C@H]12` [Spi, spironolactone], in series [8], the Maximum inhibition was found to be 34.0%. Further, the “constitutive expression of β-gal” value in series [4] is “not affected”.

Take `C[C@]12CC[C@H]3[C@@H](CCC4=CC(=O)CC[C@@]43C)[C@@H]1CC[C@@H]2O` [TS, Testosterone]: the EC50 in series [5] (EC50, agonist assay, strain cwp1Δcwp2Δ) amounted to 870 nM; in series [1] (strain cwp1Δcwp2Δ) it was 29000 nM; in series [1] (strain cwp1Δpdr5Δ) it was 31000 nM.

Turning to `CC/C(=C(\c1ccccc1)c1ccc(OCCN(C)C)cc1)c1ccccc1` [Tam, tamoxifen], the “constitutive β-gal expression in control CYC yeasts” value in series [4] (100 μM) is on record as “less than 60%”.

As to `C[C@H]1CCC[C@H](O)CCCCCc2cc(O)cc(O)c2C(=O)O1` [Zer, zeranol], in series [4] (CYC W303a and corresponding CYC mutant strains), the “constitutive expression of β-gal” value is “not affected”.

These data come from article PMC7251871, “Construction of reporter gene assays using CWP and PDR mutant yeasts for enhanced detection of various sex steroids” (Genes and Environment, 2020).
